This note sets out measurements from patent US9447418B2, “Pro- and anti-angiogenic treatments” (UNIVERSITY OF BRISTOL, priority 2007, dated 2016).

Holding throughout (format): cell-based, human
The subject of assay [1] is VEGF terminal exon splice site selection. The experiment in a line: RT-PCR of podocyte mRNA for proximal (VEGFxxx) and distal (VEGFxxxb) spliced isoforms. To be noted: podocytes; for TGF-β1 induced VEGFxxxb expression, effect of inhibitor: FIG. 6; for TGF-β1 mediated increased intensity of the VEGFxxxb band (RT-PCR), effect of inhibitor: confirmed by Western blotting and ELISA. As to the method:
To confirm that the changes seen by TGF-β1 were at the mRNA level, and the effect of inhibitors acted at the mRNA level, real time polymerase chain reaction (RT-PCR) was carried out using primers that detect both proximal splice isoforms (VEGFxxx, 135 bp band) and distal spliced isoforms (VEGFxxxb, 74 bp band). […] This increase in intensity was inhibited by SB203820, but not by the p42/p44MAPK inhibitor PD98059. […] These findings were confirmed by Western blotting (FIG. 5B) and ELISA (FIG. 5C).

Assay [2] shares this test system. The experiment in a line: VEGF isoform ELISA of podocytes (PCIP) after growth factor / inhibitor treatment. To be noted: for increase of VEGFxxxb protein level / increase of total VEGF protein expression: 48 h. The procedure: (§1) Proliferating Conditionally Immortalized Podocytes (PCIPs) were derived from cell lines conditionally transformed from normal human podocytes with temperature-sensitive mutant of immortalized SV-40 (Simian Virus 40) T-antigen. At the permissive temperature of 33° C. the SV-40 T-antigen is active and allows the cells to proliferate rapidly (46). PCIPs were cultured in T75 flasks (Greiner) in RPMI-1640® cell culture medium (Sigma) with 10% FBS (Foetal Bovine Serum), 1% ITS (Insulin Transferrin Selenium) (Sigma), 0.5% PSS (Penicillin Streptomycin Solution) (Sigma) and grown to 95% confluency. Then cells were split to six well plates (1×10^4 cells per well) and grown until 95% confluent.
We investigated time- and dose-dependent effects of Insulin-like Growth Factor 1 (IGF-1), Transforming Growth Factor β1 (TGF-β1) and Platelet-Derived Growth Factor (PDGF) on production of VEGF isoforms from cultured PCIPs. Twenty-four hours before treatment cultured medium was replaced with serum free RPMI-1654 medium (Sigma) containing 1% ITS (Sigma) and 0.5% PSS (Sigma). Subsequently, the medium was replaced with fresh serum free RPMI-1654 medium (Sigma) containing 1% ITS (Sigma), 0.5% PSS (Sigma) and increasing concentrations of IGF-1 (Sigma), or TGF-β1 (Sigma) or 40 ng/mL PDGF (Sigma). The conditioned media were collected 24 or 48 hours after stimulation (IGF-1, TGF-β1) and 48 hours (PDGF).
(§2) Total VEGF concentrations in the neat RPE conditioned medium were measured using a standard DuoSet VEGF ELISA (R&D) according to manufacture's instruction. VEGFxxxb was determined with a similar sandwich ELISA, using for capture a monoclonal biotinylated mouse anti-human antibody raised against the terminal nine amino acids of VEGF165b (R&D Systems Cat No. MVRL56/1) and a standard curve for this assay built with recombinant human VEGF165b (R&D). This MVRL56/1 antibody is a commercially available affinity purified mouse monoclonal IgG1 antibody, that has been characterised previously (42, 54).

Assay [3] has the same test system. In words: Western blotting of podocyte cell lysate. As to the method:
as §1
We investigated time- and dose-dependent effects of Insulin-like Growth Factor 1 (IGF-1), Transforming Growth Factor β1 (TGF-β1) and Platelet-Derived Growth Factor (PDGF) on production of VEGF isoforms from cultured PCIPs. Twenty-four hours before treatment cultured medium was replaced with serum free RPMI-1654 medium (Sigma) containing 1% ITS (Sigma) and 0.5% PSS (Sigma). […]
Protein samples were dissolved in Laemmli buffer, boiled for 3-4 min and centrifuged for 2 min at 20,000 g to remove insoluble materials. […] The immunoreactive bands corresponding to panVEGF and VEGFxxxb in each treatment were quantified by ImageJ analysis and normalised to those of β-tubulin.

The test system is the same in assay [4]. In words: IGF-induced proximal splicing (PSS) in podocytes by RT-PCR and ELISA. To be noted: for IGF-induced increase in PSS, effect of inhibitor: podocytes. The text has this:
Treatment of podocytes with IGF increases PSS as evidenced by RT-PCR and ELISA. This increase is inhibited by the PKC inhibitor BIM and the SR protein kinase inhibitor SERPIN340 (FIGS. 12 and 13).

For assay [5] the test system is unchanged. The experiment in a line: VEGF isoform ELISA of RPE cells after agonist stimulation (IGF-1, TNF-α). As to the method: Human donor eyes were obtained within 10-30 hours post-mortem from Bristol Eye Bank, Bristol, United Kingdom. Choroid-RPE sheets dissected from ocular globes were fragmented in a small amount of Dulbecco's Modification of Eagle's Medium: Ham's F12 mixture (DMEM: F12) (1:1)+GlutaMAX® supplement (Gibco) and RPE cells were isolated by digestion with 0.3 mg/ml collagenase (Gibco) for 15 min at 37° C. RPE cells were initially cultured for 5 days in the presence of 2.5% v/v foetal bovine serum (FBS) (Gibco) to prevent proliferation of fibroblasts and until the cell cultures became established. After the first passage cell culture was maintained in DMEM:F12 (1:1), supplemented with 10% v/v FBS and antibiotic/antimycotic solution (Sigma). The once passaged cells were homogeneous and contained only RPE as characterized by immunhistochemistry with anti-cytokeratin monoclonal antibody (Sigma). Cultures of RPE were routinely subcultured by trypsinisation (trypsin/EDTA, Sigma). RPE cells at passage 3-4 were plated onto 12.5 cm^2 Petri dishes (Nunc) and allowed to reach 70-80% confluency.
(§3) To determine the effects of agonists the RPE cells were cultured in freshly-replaced medium in the absence of FBS for 24 hours prior to agonist stimulation. IGF-1 (Sigma) and TNF-α (Sigma) were prepared in serum-free medium and were added in the volume of 2 ml at various concentrations, as indicated in the discussion below. No changes in cell morphology were noted on visualisation of the cells after stimulation. 24 hours later conditioned media in all experimental treatments were collected, spun down to remove debris, and placed immediately into −80° C. until the enzyme-linked immuno-sorbent assay (ELISA) was performed. The RPE cells were washed 3 times with ice-cold PBS and lysed in Laemmli buffer for Western blotting.
as §2
Due to relatively low levels of VEGFxxxb found free in the supernatant of RPE cells, for VEGFxxxb ELISA total protein in conditioned medium was precipitated with trichloroacetic acid (TCA). For this purpose 250 μl ice cold 24% TCA and 6.25 μl 2% Sodium Deoxycholate were added to 700 μl conditioned medium and left on ice for 15 min. After centrifugation at 5000×g for 10 min, pellets were collected and resuspended in lysis buffer, containing: 20 mM Tris, pH7.4, 1.5% w/v Triton X-100, 150 mM NaCl, 10% w/v glycerol and protease inhibitors cocktail (Sigma). The pH in the pelleted samples was adjusted to 7.4 with 1.5M Tris (pH8.8). The total protein content in the pellet was measured in conventional manner using bicinchoninic acid (BCA) reagent (Sigma).

For assay [6] the test system is unchanged. The experiment in a line: Western blotting of RPE cells after IGF-1. As to the method:
as §3
Protein samples were dissolved in Laemmli buffer, boiled for 3-4 min and centrifuged for 2 min at 20,000 g to remove insoluble materials. 15 μg protein per lane were separated by Sodium Dodecyl Sulfate Polyacrylamide Gel Electrophoresis (SDS/PAGE) (12%) and transferred to 0.2 μm nitrocellulose membrane. […] Subsequently the membranes were incubated with secondary horseradish peroxidase (HRP) conjugated antibody, and immunoreactive bands were visualised using enhanced chemiluminescence (ECL) reagent (Pierce). […]

Setting [7] is: RT-PCR and ELISA (FIGS. 12 and 13).
[8] abbreviates: podocytes, IGF-1, compared with control (FIG. 2B).

`COc1cccc(-c2cc(=O)c3ccccc3o2)c1N` [PD98059]: the “TGF-β1 induced VEGFxxxb expression, effect of inhibitor” value in assay [1] was “not affected”.
Take `C[S+]([O-])c1ccc(-c2nc(-c3ccncc3)c(-c3ccc(F)cc3)[nH]2)cc1` (stereo not shown) [SB203580, reference compound]: in assay [2] (podocytes (FIG. 5B)), the “TGF-β effect on expression of VEGFxxxb or VEGFxxx isoforms in presence of inhibitor” value is “did not increase expression”. Besides, the “expression of VEGFxxx isoforms” value in assay [2] (podocytes treated with SB203580, below the detection limit) is “did not increase”. This molecule also gave a VEGF165b expression in assay [2] (podocytes treated with SB203580, untreated 850±50 pg/mg protein (FIG. 5A)) of 450 ± 80 pg/mg. For the same molecule, the “TGF-β1 mediated increased intensity of the VEGFxxxb band (RT-PCR), effect of inhibitor” value in assay [1] (TGF-β1 1 nM) is “inhibited”. Besides, the “TGF-β1 upregulation of VEGF165b by Western blotting, effect of inhibitor” value in assay [3] (podocytes (FIG. 5C)) is “inhibited”.
For the molecule `O=C(Nc1cc(C(F)(F)F)ccc1N1CCCCC1)c1ccncc1` [SERPIN340], the “IGF-induced increase in PSS, effect of inhibitor” value in assay [4] (setting [7]) is on record as “inhibited”.
Turning to `CCN1/C(=C/C(C)=O)Sc2ccc(OC)cc21` [TG003], the “TGF-β1 induced VEGFxxxb expression, effect of inhibitor” value in assay [1] was “inhibited”. The “TGF-β1 mediated increased intensity of the VEGFxxxb band (RT-PCR), effect of inhibitor” value in assay [1] (TGF-β1 1 nM) is “inhibited”.
For “IGF-1: Insulin-like Growth Factor 1 (Sigma), growth factor favouring proximal splice site selection”, in assay [2] (setting [8]), the VEGF165b levels result is listed as “decrease” and the “total VEGF levels” value is given as “significant increase”. Also, the “proximal splice site selection (PSS)” value in assay [4] (podocytes treated with IGF, RT-PCR and ELISA (FIGS. 12 and 13)) is reported as “increases”. For the same molecule, the “share of VEGF produced as VEGFxxxb” value in assay [5] (RPE cells after IGF-1 treatment, originally 80±32%) came to 5±20%. The same molecule gave a VEGFtotal in assay [5] (RPE cells, 100 nM IGF-1, N=6, untreated 217±112) of 1656±448 pg/mg protein. Further, the VEGFxxxb in assay [5] (RPE cells, 100 nM IGF-1, untreated 78±12) is given as 64±14 pg/mg protein. The molecule further came in with a VEGFxxx in assay [5] (RPE cells, 100 nM IGF-1, untreated 138±117) of 1592 pg/mg protein. Also, the “VEGF165b by Western blotting” value in assay [6] (100 nM IGF (FIG. 3A)) is given as “downregulated”. For the same molecule, the “total VEGF relative to loading control by Western blotting” value in assay [6] (100 nM IGF, β-actin loading control (FIG. 3B)) is listed as “increase”.
Turning to “TGF-β1: Transforming Growth Factor β1 (Sigma), growth factor favouring distal splice site selection”, the “fall of VEGFxxx expression levels” value in assay [2] (podocytes, 1 nM TGF-β) was 70±7%. In addition, in assay [2] (podocytes, TGF-β1 0.5 nM), the “increase of VEGFxxxb protein level” value came out at 2.9±1.4 fold and the “increase of total VEGF protein expression” value worked out at 2.25±0.65 fold. Moreover, in assay [2] (podocytes, TGF-β1 1 nM), the “increase of VEGFxxxb protein level” value worked out at 7.2±4.7 fold and the “increase of total VEGF protein expression” value is listed as 4.63±0.61 fold. Also, in assay [1] (TGF-β1 1 nM), the “relative density of the lower, VEGFxxxb, band (RT-PCR)” value is listed as “increase”. Also, in assay [3] (podocyte cell lysate, 0.5 and 1 nM TGF-β1 (FIG. 4B)), the “VEGF165b and VEGF121b isoforms by Western blotting” value is listed as “upregulated”.
As to TNF-α, the “decrease of VEGFxxxb isoforms” value in assay [5] (RPE cells, 50 ng/ml TNF-α) is on record as 46±3%. The “mean increase of VEGFxxx isoforms” value in assay [5] (RPE cells, 50 ng/ml TNF-α, n=3) is listed as 4.5±2.0 fold. Moreover, the VEGFxxx isoforms in assay [5] (RPE cells, 50 ng/ml TNF-α, n=3, untreated 182±83) is 825±366 pg/mg protein. Moreover, in assay [5] (RPE cells, 50 ng/ml TNF-α, untreated 99±26), the VEGFxxxb isoforms is 42±13 pg/mg protein.
For bisindolyl maleimide [BIM], in assay [4] (setting [7]), the “IGF-induced increase in PSS, effect of inhibitor” value was “inhibited”. Further, the VEGF isoform favoured entry in assay [4] (summary statement) is listed as “favoured VEGF165b”.
